# Reference: US20240052317A1, “Methods for Differentiating Stromal Cells or Pericytes” (Lung Biotechnology PBC, priority 2022, published 2024)
# Counter-ions that a name gives are not always drawn.
# Test system: human pulmonary artery endothelial cells (HPAEC)
# Experiment: Tube formation assay of test differentiated cells co-cultured with HPAEC
# Format: cell-based
# Conditions: co-culture of HPAEC and test differentiated cells, 1 μM imatinib mesylate, FIG. 2
# Method: Next, test differentiated cells were further characterized with a tube formation assay using the following protocol. Test differentiated cells were co-cultured with human pulmonary artery endothelial cells (HPAEC) with or without 1 μM imatinib mesylate to inhibit angiogenesis, and tube formation was observed. Specifically, the wells of 96-well plates (Costar, Product No. 387) were coated with 30 μL of Matrigel® GFR. Plates were spun for 1 minute at 1,500 rotations per minute (RPM) and incubated for 30 minutes at 30° C. Cells were then lifted from culture plates, counted and resuspended in DMEM/F12 media such that 30 μL of media was available for each well. Each well received 30,000 HPAEC and 5,000 differentiated cells.
# Green labeling of HPAEC was performed using Nuclight Green Lentivirus, Essen/Sartorius #4475. 100 μL of transfection reagent was added to 5 mL of media and mixed. In another 5 mL of media, 10 μL of needed lentivirus was added and mixed. Both 5 mL preparations were then added together, mixed, and added to an approximately 70% confluent plate of HPAEC or pericytes. Plates were allowed grow overnight in incubator.
# Media and lentivirus preparation was removed and replaced with fresh media, and plates were incubated overnight. Plates were incubated for one week, using 1 μg of puromycin in the media for daily media changes […]
smiles,measurement,value
Cc1ccc(NC(=O)c2ccc(CN3CCN(C)CC3)cc2)cc1Nc1nccc(-c2cccnc2)n1 [imatinib mesylate],tube formation and co-localization with HPAEC,did not
